From patent US5916904A, “Antimicrobial agent” (Eisai Co., Ltd., priority 1992, dated 1999)
Values after ≈ are worked out from the molar mass of the structure shown.

Tests used:
C. pylori EI-2 = test: MIC by agar dilution method, C. pylori clinical isolate EI-2; assay type: cell-based; conditions: Helicobacter pylori, EI2, 72 h; EI-2, clinical isolate; in vitro, 37° C., pH 7.0, 3 days, microaerophilic; read-out: antibiotic activity (MIC)
[1] = Acute Toxicological Test in mice; conditions: mouse, in vivo, one time
Description: (§1) The compound (I) of the invention was administered Intravenously or orally one time, with a carrier of saline, to Slc:SD rats and Slc:ICR mouse, each being 7 or 8 weeks old, in a group consisting of five males and five females, to determine LD50 values.
(§2) Acute toxicity of the compound (I) is shown in terms of LD50 in unit of mg/kg.

C. pylori EI-391 = test: MIC by agar dilution method, C. pylori clinical isolate EI-391; assay type: cell-based; conditions: Helicobacter pylori, EI391, 72 h; EI-391, clinical isolate (resistant); in vitro, 37° C., pH 7.0, 3 days, microaerophilic; read-out: antibiotic activity (MIC)
C. pylori EI-5 = test: MIC by agar dilution method, C. pylori clinical isolate EI-5; assay type: cell-based; conditions: Helicobacter pylori, EI5, 72 h; EI-5, clinical isolate; in vitro, 37° C., pH 7.0, 3 days, microaerophilic; read-out: antibiotic activity (MIC)
C. pylori EI-612 = test: MIC by agar dilution method, C. pylori clinical isolate EI-612; assay type: cell-based; conditions: Helicobacter pylori, EI612, 72 h; EI-612, clinical isolate; in vitro, 37° C., pH 7.0, 3 days, microaerophilic; read-out: antibiotic activity (MIC)
C. pylori EI-930 = test: MIC by agar dilution method, C. pylori clinical isolate EI-930; assay type: cell-based; conditions: Helicobacter pylori, EI930, 72 h; EI-930, clinical isolate; in vitro, 37° C., pH 7.0, 3 days, microaerophilic; read-out: antibiotic activity (MIC)
C. pylori NCTC11916 = test: MIC by agar dilution method, C. pylori standard strain NCTC11916; assay type: cell-based; conditions: Helicobacter pylori, 72 h, in vitro, 37° C., pH 7.0, 3 days, microaerophilic, read-out: antibiotic activity (MIC)
C. pylori EI-397 = test: MIC by agar dilution method, C. pylori clinical isolate EI-397; assay type: cell-based; conditions: Helicobacter pylori, EI397, 72 h; EI-397, clinical isolate; in vitro, 37° C., pH 7.0, 3 days, microaerophilic; read-out: antibiotic activity (MIC)
C. pylori EI-36 = test: MIC by agar dilution method, C. pylori clinical isolate EI-36; assay type: cell-based; conditions: Helicobacter pylori, EI36, 72 h; EI-36, clinical isolate; in vitro, 37° C., pH 7.0, 3 days, microaerophilic; read-out: antibiotic activity (MIC)
C. pylori [2] = test: antibiotic activity against C. pylori, overall conclusion; assay type: cell-based; conditions: compared with antibiotic substances / known compounds
C. pylori EI-393 = test: MIC by agar dilution method, C. pylori clinical isolate EI-393; assay type: cell-based; conditions: Helicobacter pylori, EI393, 72 h; EI-393, clinical isolate; in vitro, 37° C., pH 7.0, 3 days, microaerophilic; read-out: antibiotic activity (MIC)
C. pylori EI-467 = test: MIC by agar dilution method, C. pylori clinical isolate EI-467; assay type: cell-based; conditions: Helicobacter pylori, EI467, 72 h; EI-467, clinical isolate; in vitro, 37° C., pH 7.0, 3 days, microaerophilic; read-out: antibiotic activity (MIC)
C. pylori NCTC11637 = test: MIC by agar dilution method, C. pylori standard strain NCTC11637; assay type: cell-based; conditions: Helicobacter pylori, 72 h, in vitro, 37° C., pH 7.0, 3 days, microaerophilic, read-out: antibiotic activity (MIC)
C. pylori EI-46 = test: MIC by agar dilution method, C. pylori clinical isolate EI-46; assay type: cell-based; conditions: Helicobacter pylori, EI46, 72 h; EI-46, clinical isolate (resistant); in vitro, 37° C., pH 7.0, 3 days, microaerophilic; read-out: antibiotic activity (MIC)
C. pylori EI-925 = test: MIC by agar dilution method, C. pylori clinical isolate EI-925; assay type: cell-based; conditions: Helicobacter pylori, EI925, 72 h; EI-925, clinical isolate; in vitro, 37° C., pH 7.0, 3 days, microaerophilic; read-out: antibiotic activity (MIC)
C. pylori EI-429 = test: MIC by agar dilution method, C. pylori clinical isolate EI-429; assay type: cell-based; conditions: Helicobacter pylori, EI429, 72 h; EI-429, clinical isolate; in vitro, 37° C., pH 7.0, 3 days, microaerophilic; read-out: antibiotic activity (MIC)
[3] = Acute Toxicological Test in rats; conditions: rat, in vivo, one time
Description: as §1, §2

C. pylori EI-933 = test: MIC by agar dilution method, C. pylori clinical isolate EI-933; assay type: cell-based; conditions: Helicobacter pylori, EI933, 72 h; EI-933, clinical isolate; in vitro, 37° C., pH 7.0, 3 days, microaerophilic; read-out: antibiotic activity (MIC)
C. pylori [4] = conditions: JP-A 2-209809 and JP-A 3-173817; cited from earlier work
C. pylori 8005 = conditions: C. pylori 8005, clinical isolate; JP-A 2-209809; cited from earlier work
[5] = system: C. pylori NCTC-11916, NCTC-11637, PCL-56, CPY-0011-1, KS-13, CLO-1 and CLO-6; conditions: standard strains and clinical isolates; JP-A 3-173817; cited from earlier work

SMILES	MIC (C. pylori EI-2) [µg/mL]	MIC (C. pylori EI-391) [µg/mL]	MIC (C. pylori EI-5) [µg/mL]	MIC (C. pylori EI-612) [µg/mL]	MIC (C. pylori EI-930) [µg/mL]	MIC (C. pylori NCTC11916) [µg/mL]	MIC (C. pylori EI-397) [µg/mL]	MIC (C. pylori EI-36) [µg/mL]	MIC (C. pylori EI-393) [µg/mL]	MIC (C. pylori EI-467) [µg/mL]	MIC (C. pylori NCTC11637) [µg/mL]	MIC (C. pylori EI-46) [µg/mL]	MIC (C. pylori EI-925) [µg/mL]	MIC (C. pylori EI-429) [µg/mL]	MIC (C. pylori EI-933) [µg/mL]	also measured
COCCCOc1ccnc(C[S+]([O-])c2nc3ccccc3[nH]2)c1C (stereo not drawn) [(I), 2-[(4-(3-Methoxypropoxy)-3-methylpyridine-2-yl)-methylsulfinyl]-1H-benzimidazole]	3.13 (≈ 8.71 µM)	3.13 (≈ 8.71 µM)	3.13 (≈ 8.71 µM)	0.4 (≈ 1.11 µM)	3.13 (≈ 8.71 µM)	3.13 (≈ 8.71 µM)	3.13 (≈ 8.71 µM)	6.25 (≈ 17.4 µM)	3.13 (≈ 8.71 µM)	1.56 (≈ 4.34 µM)	3.13 (≈ 8.71 µM)	3.13 (≈ 8.71 µM)	3.13 (≈ 8.71 µM)	1.56 (≈ 4.34 µM)	3.13 (≈ 8.71 µM)	LD50 ([1]; iv, female): 237 mg/kg; LD50 ([1]; iv, male): 220 mg/kg; LD50 ([1]; po, female): 1010 mg/kg; LD50 ([1]; po, male): 1210 mg/kg; C. pylori-eradicating activity (C. pylori [2]): the same C. pylori-eradicating activity as an antibiotic substance; LD50 ([3]; iv, female): 152 mg/kg; LD50 ([3]; iv, male): 157 mg/kg; LD50 ([3]; po, female): 1330 mg/kg; LD50 ([3]; po, male): 1450 mg/kg
COCCCOc1ccnc(CSc2nc3ccccc3[nH]2)c1C [(II), 2-[(4-(3-Methoxypropoxy)-3-methylpyridine-2-yl)-methylthio]-1H-benzimidazole]	0.4 (≈ 1.16 µM)	1.56 (≈ 4.54 µM)	0.2 (≈ 0.582 µM)	0.8 (≈ 2.33 µM)	0.4 (≈ 1.16 µM)	0.2 (≈ 0.582 µM)	1.56 (≈ 4.54 µM)	0.4 (≈ 1.16 µM)	1.56 (≈ 4.54 µM)	1.56 (≈ 4.54 µM)	0.8 (≈ 2.33 µM)	0.4 (≈ 1.16 µM)	0.4 (≈ 1.16 µM)	1.56 (≈ 4.54 µM)	0.8 (≈ 2.33 µM)	C. pylori-eradicating activity (C. pylori [2]): the same C. pylori-eradicating activity as an antibiotic substance
COc1ccc2[nH]c([S+]([O-])Cc3ncc(C)c(OC)c3C)nc2c1 (stereo not drawn) [(III), 5-Methoxy-2-[{(4-methoxy-3,5-dimethyl-2-pyridinyl)methyl}sulfinyl]-1H-benzimidazole]	25 (≈ 72.4 µM)	50 (≈ 145 µM)	50 (≈ 145 µM)	25 (≈ 72.4 µM)	25 (≈ 72.4 µM)	25 (≈ 72.4 µM)	50 (≈ 145 µM)	25 (≈ 72.4 µM)	50 (≈ 145 µM)	50 (≈ 145 µM)	50 (≈ 145 µM)	25 (≈ 72.4 µM)	25 (≈ 72.4 µM)	25 (≈ 72.4 µM)	25 (≈ 72.4 µM)	antibiotic activity (C. pylori [4]): lacks sufficient antibiotic activity; antibiotic activity (C. pylori 8005): has antibiotic activity against C. pylori 8005
COc1ccc2[nH]c(SCc3ncc(C)c(OC)c3C)nc2c1 [(IV), 5-Methoxy-2-{(4-methoxy-3,5-dimethyl-2-pyridinyl)methylthio}-1H-benzimidazole]	25 (≈ 75.9 µM)	25 (≈ 75.9 µM)	25 (≈ 75.9 µM)	12.5 (≈ 37.9 µM)	12.5 (≈ 37.9 µM)	12.5 (≈ 37.9 µM)	25 (≈ 75.9 µM)	12.5 (≈ 37.9 µM)	25 (≈ 75.9 µM)	12.5 (≈ 37.9 µM)	25 (≈ 75.9 µM)	12.5 (≈ 37.9 µM)	12.5 (≈ 37.9 µM)	25 (≈ 75.9 µM)	12.5 (≈ 37.9 µM)	
Cc1c(OCC(F)(F)F)ccnc1CSc1nc2ccccc2[nH]1 [(V), 2-[{3-Methyl-4-(2,2,2-trifluoroethoxy)pyrid-2-yl}methylthio]-1H-benzimidazole]	25 (≈ 70.7 µM)	12.5 (≈ 35.4 µM)	12.5 (≈ 35.4 µM)	6.25 (≈ 17.7 µM)	12.5 (≈ 35.4 µM)	12.5 (≈ 35.4 µM)	25 (≈ 70.7 µM)	12.5 (≈ 35.4 µM)	25 (≈ 70.7 µM)	12.5 (≈ 35.4 µM)	25 (≈ 70.7 µM)	12.5 (≈ 35.4 µM)	12.5 (≈ 35.4 µM)	25 (≈ 70.7 µM)	12.5 (≈ 35.4 µM)	
CC[C@H]1OC(=O)[C@H](C)[C@@H](O[C@H]2C[C@@](C)(OC)[C@@H](O)[C@H](C)O2)[C@H](C)[C@@H](O[C@@H]2O[C@H](C)C[C@H](N(C)C)[C@H]2O)[C@](C)(O)C[C@@H](C)/C(=N\OCOCCOC)[C@H](C)[C@@H](O)[C@]1(C)O [(VI), roxithromycin]	0.2 (≈ 0.239 µM)	50 (≈ 59.7 µM)	0.2 (≈ 0.239 µM)	0.2 (≈ 0.239 µM)	0.4 (≈ 0.478 µM)	0.1 (≈ 0.119 µM)	0.2 (≈ 0.239 µM)	0.2 (≈ 0.239 µM)	0.2 (≈ 0.239 µM)	0.2 (≈ 0.239 µM)	0.4 (≈ 0.478 µM)	> 100	0.2 (≈ 0.239 µM)	0.2 (≈ 0.239 µM)	0.1 (≈ 0.119 µM)	
CC1(C)S[C@@H]2[C@H](NC(=O)[C@H](N)c3ccccc3)C(=O)N2[C@H]1C(=O)O [(VII), ampicillin]	0.4 (≈ 1.14 µM)	0.1 (≈ 0.286 µM)	0.4 (≈ 1.14 µM)	0.05 (≈ 0.143 µM)	0.4 (≈ 1.14 µM)	0.05 (≈ 0.143 µM)	0.1 (≈ 0.286 µM)	0.2 (≈ 0.572 µM)	0.1 (≈ 0.286 µM)	0.05 (≈ 0.143 µM)	0.4 (≈ 1.14 µM)	0.05 (≈ 0.143 µM)	0.2 (≈ 0.572 µM)	0.2 (≈ 0.572 µM)	0.05 (≈ 0.143 µM)	
CC1COc2c(N3CCN(C)CC3)c(F)cc3c(=O)c(C(=O)O)cn1c23 (stereo not drawn) [(VIII), ofloxacin]	0.8 (≈ 2.21 µM)	25 (≈ 69.2 µM)	0.8 (≈ 2.21 µM)	0.8 (≈ 2.21 µM)	0.8 (≈ 2.21 µM)	0.8 (≈ 2.21 µM)	0.8 (≈ 2.21 µM)	0.8 (≈ 2.21 µM)	0.8 (≈ 2.21 µM)	0.4 (≈ 1.11 µM)	0.8 (≈ 2.21 µM)	3.13 (≈ 8.66 µM)	0.4 (≈ 1.11 µM)	0.8 (≈ 2.21 µM)	0.4 (≈ 1.11 µM)	
Cc1c(OCC(F)(F)C(F)F)ccnc1CSc1nc2ccccc2[nH]1 [JP-A 3-173817 compound (12), 2-[{3-Methyl-4-(2,2,3,3-tetrafluoropropoxy)pyrid-2-yl}methylthio]-1H-benzimidazole]																antibiotic activity [5]: activity against all the tested strains
Cc1c(OCC(F)(F)C(F)(F)F)ccnc1CSc1nc2ccccc2[nH]1 [JP-A 3-173817 compound (13), 2-[{3-Methyl-4-(2,2,3,3,3-pentafluoropropoxy)pyrid-2-yl}methylthio]-1H-benzimidazole]																antibiotic activity [5]: activity against all the tested strains
Cc1c(OCC(F)(F)C(F)(F)C(F)F)ccnc1CSc1nc2ccccc2[nH]1 [JP-A 3-173817 compound (14), 2-[{3-Methyl-4-(2,2,3,3,4,4-hexafluorobutoxy)pyrid-2-yl}methylthio]-1H-benzimidazole]																antibiotic activity [5]: activity against all the tested strains
